Where a name gives a salt, the structure may show the parent alone.

T1 sequence (Q07343 1-564 isoform Q07343-2): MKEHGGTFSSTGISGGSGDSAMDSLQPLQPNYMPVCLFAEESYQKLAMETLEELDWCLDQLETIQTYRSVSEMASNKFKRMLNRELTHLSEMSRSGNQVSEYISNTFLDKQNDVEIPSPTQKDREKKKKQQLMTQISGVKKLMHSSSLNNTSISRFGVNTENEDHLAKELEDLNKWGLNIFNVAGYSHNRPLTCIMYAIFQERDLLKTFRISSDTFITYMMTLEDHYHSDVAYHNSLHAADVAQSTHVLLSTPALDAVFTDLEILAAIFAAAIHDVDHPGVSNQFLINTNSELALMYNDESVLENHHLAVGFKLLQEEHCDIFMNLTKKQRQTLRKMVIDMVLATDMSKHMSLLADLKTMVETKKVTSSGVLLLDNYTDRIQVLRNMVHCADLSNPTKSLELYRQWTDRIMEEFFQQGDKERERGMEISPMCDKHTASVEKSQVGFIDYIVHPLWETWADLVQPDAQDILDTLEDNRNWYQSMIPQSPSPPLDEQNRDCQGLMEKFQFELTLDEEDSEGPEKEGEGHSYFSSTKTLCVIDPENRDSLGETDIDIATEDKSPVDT

In one test the test system is LPS-induced pulmonary neutrophilia in rats. As to the kind of experiment: In Vivo Assay 1: LPS induced pulmonary neutrophilia in rats, intratracheal administration. To be noted: after i.t. administration to the rat as a dry powder; preliminary tests. Also on record: species or system rat. The text has this:
This assay is an animal model of acute inflammation in the lung—specifically neutrophilia induced by lipopolysaccharide (LPS)—and allows the study of putative inhibition of such neutrophilia (anti-inflammatory effect) by an intratracheally (i.t.) administered PDE4 inhibitor (“drug”). The PDE4 inhibitors are suitably in dry powder, aqueous solution or aqueous suspension form. I.t. administration is one model of inhaled administration, allowing topical delivery to the lung.
Animals: Male CD (Sprague Dawley Derived) rats supplied by Charles River, United Kingdom are housed in groups of 5 rats per cage, acclimatised after delivery for at least 7 days with bedding/nesting material regularly changed, fed on SDS diet R1 pelleted food given ad lib, and supplied with daily-changed pasteurised animal grade drinking water.
Device for dry powder administration: For these studies, a Penn Century DP-4 dry powder intratracheal (i.t.) delivery device (insufflator) is used for administration of a dry powder blend of vehicle (inhalation grade lactose) and the PDE4 inhibitor compound or salt of the invention (“drug”). Each device is numbered and the sample loading chamber is unscrewed from the main device and weighed. The i.t. delivery needle is also weighed. The drug+lactose blend or inhalation grade lactose (vehicle control) is then added to the sample chamber and this is then re-weighed. The sample chamber is fitted back on to the main device to prevent any drug being lost. This procedure is repeated for all of the Penn century devices to be used in the study (one separate device for each animal). After dosing to the animals, the sample chambers and needles are re-weighed in order to determine the amount of sample that was expelled from the device.
Device for aqueous solution administration: A blunt dosing needle, whose forward end is slightly angled to the needle axis, is used, with a flexible plastic portex canula inserted into the needle. The portex cannula is inserted into the lumen of the blunt stainless steel dosing needle and this is carefully inserted into the back of the animal's throat and into the trachea via the larynx. A known volume (200 microlitres) of the vehicle (0.2% Tween 80™ in saline) or of the solution (or suspension) drug composition is administered into the trachea using a plastic syringe that is attached to the portex cannula and dosing needle. A new internal cannula is used for each different drug group. After dosing, the needle is removed from the trachea and the animals are removed from the table and continually observed until they recover from the effects of anaesthesia. The animals are then returned to the holding cages and given free access to food and water, and are observed and any unusual behavioural changes noted. (Aqueous suspensions can be handled generally similarly.)
Drugs and Materials: Lipopolysaccharide (LPS) (Serotype:0127:B8, e.g. from Sigma, UK; e.g. L3129 prepared by phenol extraction) is dissolved in phosphate-buffered saline (PBS).
For dry powder, aqueous solution or aqueous suspension administration, PDE4 inhibitors are preferably used in size-reduced (e.g. micronised) form, for example according to the Micronisation Example(s) disclosed herein.
For dry powder administration of the drug, the PDE4 inhibitor compound or salt of the invention (drug) is administered as a dry powder blended with inhalation-grade (respiratory-grade) lactose, i.e. as a dry powder composition. The target quantity of dry powder composition administered i.t. to each animal is 2 mg. This remains constant throughout the studies. To achieve different doses, blends of the drug dry powder and lactose, containing different concentrations of the PDE4 inhibitor compound or salt of the invention (drug), are prepared. […]
With `CCc1nc2c(cnn2CC)c(NC2CCOCC2)c1CNC(=O)c1ccc(NC(=O)CCCCCCCN(C)CCO)cc1` [N-{[1,6-diethyl-4-(tetrahydro-2H-pyran-4-ylamino)-1H-pyrazolo[3,4-b]pyridin-5-yl]methyl}-4-({8-[(2-hydroxyethyl)(methyl)amino]octanoyl}amino)benzamide], the “duration of action in i.t. rat LPS-induced neutrophilia model” value stood at 4 h.

Staying with this test, now noted: after i.t. administration to the rat as an aqueous solution; preliminary tests.
`CCc1nc2c(cnn2CC)c(NC2CCOCC2)c1CNC(=O)c1ccc(NC(=O)CCCCCCCN(C)CCO)cc1` [N-{[1,6-diethyl-4-(tetrahydro-2H-pyran-4-ylamino)-1H-pyrazolo[3,4-b]pyridin-5-yl]methyl}-4-({8-[(2-hydroxyethyl)(methyl)amino]octanoyl}amino)benzamide]: the “duration of action in i.t. rat LPS-induced neutrophilia model” value is at least 2 h.

A further test concerns the target T1, PDE4B (human recombinant) (Homo sapiens, UniProt Q07343).
T1 construct: made in house; host or cells: Saccharomyces cerevisiae strain GL62 (PDE-deficient yeast)
As to the kind of experiment: Inhibition of PDE4B activity (FP and/or SPA assay). Format: biochemical. To be noted: generally FP assay; one reading or average of n readings; read-out: PDE4B pIC50 (generally in FP assay) (±about 0.5) (converted). The text has this: Human recombinant PDE4B, in particular the 2B splice variant thereof (HSPDE4B2B), is disclosed in WO 94/20079 and also M. M. McLaughlin et al., “A low Km, rolipram-sensitive, cAMP-specific phosphodiesterase from human brain: cloning and expression of cDNA, biochemical characterisation of recombinant protein, and tissue distribution of mRNA”, J. Biol. Chem., 1993, 268, 6470-6476. For example, in Example 1 of WO 94/20079, human recombinant PDE4B is described as being expressed in the PDE-deficient yeast Saccharomyces cerevisiae strain GL62, e.g. after induction by addition of 150 uM CuSO4, and 100,000×g supernatant fractions of yeast cell lysates are described for use in the harvesting of PDE4B enzyme.
The ability of compounds to inhibit catalytic activity at PDE4B or 4D (human recombinant), PDE3 (from bovine aorta), PDE5 (human recombinant) or PDE6 (from bovine retina) can optionally be determined by Scintillation Proximity Assay (SPA) in a 96-well format.
Test compounds (as a solution in DMSO, suitably about 2 microlitre (ul) volume of DMSO solution) are preincubated at ambient temperature (room temperature, e.g. 19-23° C.) in Wallac Isoplates (code 1450-514) with PDE enzyme in 50 mM Tris-HCl buffer pH 7.5, 8.3 mM MgCl2, 1.7 mM EGTA, 0.05% (w/v) bovine serum albumin for 10-30 minutes (usually 30 minutes). The enzyme concentration is adjusted so that no more than 20% hydrolysis of the substrate defined below occurs in control wells without compound, during the incubation. For the PDE3, PDE4B and PDE4D assays, [5′,8-^3H]Adenosine 3′,5′-cyclic phosphate (Amersham Pharmacia Biotech, code TRK.559; or Amersham Biosciences UK Ltd, Pollards Wood, Chalfont St Giles, Buckinghamshire HP8 4SP, UK) is added to give 0.05uCi per well and about 10 nM final concentration. For the PDE5 and PDE6 assays, [8^−3H]Guanosine 3′,5′-cyclic phosphate (Amersham Pharmacia Biotech, code TRK.392) is added to give 0.05uCi per well and about 36 nM final concentration. Plates containing assay mixture, suitably approx. 100 ul volume of assay mixture, are mixed on an orbital shaker for 5 minutes and incubated at ambient temperature for 1 hour. Phosphodiesterase SPA beads (Amersham Pharmacia Biotech, code RPNQ 0150) are added (about 1 mg per well) to terminate the assay. Plates are sealed and shaken and allowed to stand at ambient temperature for 35 minutes to 1 hour (suitably 35 minutes) to allow the beads to settle. Bound radioactive product is measured using a WALLAC TRILUX 1450 Microbeta scintillation counter. For inhibition curves, 10 concentrations (e.g. 1.5 nM-30 uM) of each compound are assayed. Curves are analysed using ActivityBase and XLfit (ID Business Solutions Limited, 2 Ocean Court, Surrey Research Park, Guildford, Surrey GU2 7QB, United Kingdom) Results are expressed as pIC50 values.
The ability of compounds to inhibit catalytic activity at PDE4B (human recombinant) or PDE4D (human recombinant) can optionally be determined by IMAP Fluorescence Polarisation (FP) assay (IMAP Explorer kit, available from Molecular Devices Corporation, Sunnydale, Calif., USA; Molecular Devices code: R8062) in 384-well format.
The IMAP FP assay is able to measure PDE activity in an homogenous, non-radioactive assay format. The FP assay uses the ability of immobilised trivalent metal cations, coated onto nanoparticles (tiny beads), to bind the phosphate group of Fl-AMP that is produced on the hydrolysis of fluorescein-labelled (Fl) cyclic adenosine mono-phosphate (Fl-cAMP) to the non-cyclic Fl-AMP form. […] Binding of Fl-AMP product to the beads (coated with the immobilised trivalent cations) slows the rotation of the bound Fl-AMP and leads to an increase in the fluorescence polarisation ratio of parallel to perpendicular light. Inhibition of the PDE reduces/inhibits this signal increase. […]
As to `CCc1nc2c(cnn2CC)c(NC2CCOCC2)c1CNC(=O)c1ccc(NC(=O)CCCCCCCN(C)CCO)cc1` [Example 1C, N-{[1,6-diethyl-4-(tetrahydro-2H-pyran-4-ylamino)-1H-pyrazolo[3,4-b]pyridin-5-yl]methyl}-4-({8-[(2-hydroxyethyl)(methyl)amino]octanoyl}amino)benzamide], the IC50 is around 0.0501 nM.

In the case of `CCc1nc2c(cnn2CC)c(NC2CCOCC2)c1CNC(=O)c1ccc(NC(=O)CCCCCCCN2CCC[C@@H]2COC)cc1` [Example 11, N-{[1,6-diethyl-4-(tetrahydro-2H-pyran-4-ylamino)-1H-pyrazolo[3,4-b]pyridin-5-yl]methyl}-4-[(8-{(2R)-2-[(methyloxy)methyl]-1-pyrrolidinyl}octanoyl)amino]benzamide trifluoroacetate], the IC50 was around 0.0501 nM. Still for that read-out and setting: in the case of `CCc1nc2c(cnn2CC)c(NC2CCOCC2)c1CNC(=O)c1ccc(CCCCOCCCCN2CCCC2)cc1` [Example 21, formate salt of N-{[1,6-diethyl-4-(tetrahydro-2H-pyran-4-ylamino)-1H-pyrazolo[3,4-b]pyridin-5-yl]methyl}-4-(4-{[4-(1-pyrrolidinyl)butyl]oxy}butyl)benzamide] it was around 0.0631 nM; in that of `CCc1nc2c(cnn2CC)c(NC2CCOCC2)c1CNC(=O)c1ccc(NC(=O)CCCCCCCN2CCC[C@H]2COC)cc1` [Example 12, N-{[1,6-diethyl-4-(tetrahydro-2H-pyran-4-ylamino)-1H-pyrazolo[3,4-b]pyridin-5-yl]methyl}-4-[(8-{(2S)-2-[(methyloxy)methyl]-1-pyrrolidinyl}octanoyl)amino]benzamide trifluoroacetate], around 0.0316 nM; in that of `CCc1nc2c(cnn2CC)c(NC2CCOCC2)c1CNC(=O)c1ccc(NC(=O)CCCCCCCCCCN(C)CCO)cc1` [Example 34, N-{[1,6-diethyl-4-(tetrahydro-2H-pyran-4-ylamino)-1H-pyrazolo[3,4-b]pyridin-5-yl]methyl}-4-({11-[(2-hydroxyethyl)(methyl)amino]undecanoyl}amino)benzamide], around 1 nM. For `CCc1nc2c(cnn2CC)c(NC2CCOCC2)c1CNC(=O)c1ccc(NC(=O)CCCCCCCN2CCOCC2)cc1` [Example 17, formate salt of N-{[1,6-diethyl-4-(tetrahydro-2H-pyran-4-ylamino)-1H-pyrazolo[3,4-b]pyridin-5-yl]methyl}-4-{[8-(4-morpholinyl)octanoyl]amino}benzamide], the IC50 is around 0.158 nM.

On to `CCc1nc2c(cnn2CC)c(NC2CCOCC2)c1CNC(=O)c1ccc(NC(=O)CCCCCN(C)CCO)cc1` [Example 31, N-{[1,6-diethyl-4-(tetrahydro-2H-pyran-4-ylamino)-1H-pyrazolo[3,4-b]pyridin-5-yl]methyl}-4-({6-[(2-hydroxyethyl)(methyl)amino]hexanoyl}amino)benzamide], for which the IC50 is around 0.0794 nM. On the same count and under the same terms, in the case of `CCc1nc2c(cnn2CC)c(NC2CCOCC2)c1CNC(=O)c1ccc(CCCCOCCCCN2CCOCC2)cc1` [Example 20, formate salt of N-{[1,6-diethyl-4-(tetrahydro-2H-pyran-4-ylamino)-1H-pyrazolo[3,4-b]pyridin-5-yl]methyl}-4-(4-{[4-(4-morpholinyl)butyl]oxy}butyl)benzamide] it was around 0.1 nM.

These data come from patent US20090325952A1, “PYRAZOLO[3,4-B]PYRIDINE COMPOUNDS, AND THEIR USE AS PDE4 INHIBITORS” (Glaxo Group Limited, priority 2006, published 2009).
